“Also recorded” adds a separate entry of the source. Where no end group is shown, it is not given here.
What was measured:
sGCα1-sGCβ1 = sGCα1-sGCβ1 co-immunoprecipitation, LNCaP extracts; assay type: binding; conditions: LNCaP whole-cell extracts; Fig. S1A
Description: Immunoprecipitation (IP) in LNCaP cells was performed as described previously. Whole-cell extracts from LNCaP cells were subjected to IP using Protein A/G plus Agarose (Santa Cruz). IP antibodies were against sGCα1 (Cayman Chemical), sGCβ1 (Cayman Chemical), or rabbit IgG (Santa Cruz) as control. For Biotin pulldown, 5 µg Biotin-labeled Peptide A was incubated with NeutrAvidin Agarose Resin (Thermo Scientific) for 3 hours at 4°C, after which whole-cell extract from LNCaP cells was added and incubated overnight at 4°C. Resin was washed and eluted with SDS Sample buffer, followed by SDS-PAGE gel electrophoresis.
(A) Whole-cell extracts from LNCaP cells treated with Vehicle, Peptide A-8R, or C-8R were subjected to IP using an anti-sGCα1 or anti-sGCβ1 antibody and then probed by Western blotting for sGCα1 (Upper) or sGCβ1 (Lower). Input represents amount of sGCα1 or sGCβ1 found in extracts. (B) LNCaP cells grown in the absence or presence of 1 nM R1881 were treated with Vehicle, 20 µM Peptide A-8R, 20 µM C-8R, or 8-Br-cGMP and monitored for cGMP levels using the cGMP E1A kit (Enzo Life Sciences). (C) LNCaP cells grown in the absence or presence of 8-Br-cGMP were treated with Vehicle, Peptide A-8R, or ODQ and monitored for cell density using the MTT assay. (D) LNCaP cells were treated with Vehicle or different concentrations of Peptide A-8R and C-PTIO and monitored for cell density. […]

[1] = tested on: ROS generation in LNCaP cells; test: ROS generation (CM-H2DCFDA), LNCaP/C81 cells; assay type: cell-based; conditions: Fig. 4A
Description: Intracellular ROS levels were evaluated using the fluorescent probe 5-(and-6)-chloromethyl-2′,7′-dichlorodihydrofluorescein diacetate (CM-H2DCFDA) (Invitrogen). After treatments with Peptide A-8R, C81 cells were loaded with 20 µM CM-H2DCFDA and incubated at 37°C for 30 min in the dark. Cells were then washed with PBS and fluorescence was measured at the excitation and emission wavelengths of 490 and 535 nm, respectively, using a multi-well fluorescence plate reader. For NAC (N-acetyl cysteine) (Sigma) rescue experiment, cells were pretreated with 1 or 5 mM NAC for 2 hours before adding Peptide A-8R.
Figure 4 Peptide A-8R kills prostate cancer cells by mediating ROS generation. (A) C81 cells were treated with Vehicle or different µMolar concentrations of Peptide A-8R and without or with 0–5 mM NAC and monitored for ROS generation after 0–30 min as measured by fluorescence intensity (FI). Bar graphs represent averages of three independent experiments plus standard deviations. Note that asterisks on bar graphs found with NAC are compared to equivalent data without NAC. (B) C81 cells were treated with Vehicle or different concentrations of Peptide A-8R, as shown, and 0–5 mM NAC, as shown, and monitored for cell number after 0–6 days of incubation as measured by MTT assay. Data points represent averages of three independent experiments plus standard deviations. Asterisks indicate statistical significance (P<0.04). (C) C81 cells were treated with Vehicle or different concentrations of Peptide A-8R, as shown, and with or without 5 mM NAC, as shown, and monitored DNA damage after 1 hr incubation as measured by Comet assay.

AKT = test: Western blot of AKT in cells; assay type: cell-based; conditions: LNCaP, 25 µM, Fig. S4A
Description: (§1) Western blotting was performed as described using primary antibodies against sGCα1 (Cayman Chemical), pan-Akt (Cell Signaling Technology), phospho-AKT (S473, T308) (Cell Signaling Technology), phospho-PDK1 (Cell Signaling Technology), phospho-GSK-3β (Cell Signaling Technology), PARP (Cell Signaling Technology), and β-Actin (Abcam).
Supplementary file pone.0064189.s004.tif: Figure S4 Peptide A-mediated down-regulation of AKT is not involved in its cytotoxicity to prostate cancer cells. Western blotting was used to measure the levels of total AKT or Ser-473-phosphorylated AKT in (A) LNCaP cells treated with Vehicle, Peptide A-8R, or Peptide C-8R (25 µM) for different times, as shown, (B) mouse xenograft tumors treated with Vehicle or Peptide A-8R, or (C) LNCaP cells infected with Empty or AKT-expressing adenovirus and treated with Peptide A-8R at different concentration, as shown, for 30 min. Note that β-actin was used to control for protein loading. (D) LNCaP cells, infected with Empty or AKT-expressing adenovirus, were grown in 10% serum under different concentrations of Peptide A-8R, as shown. Cell number was measured after 0–6 days of incubation. Data points represent averages of three independent experiments plus standard deviations. (TIF) Click here for additional data file.

[2] = tested on: PARP cleavage in LNCaP cells; test: PARP cleavage by Western blot, LNCaP cells; assay type: cell-based; conditions: 50 µM each drug, 8 hrs, Fig. 5D
Description: For proliferation, cells were grown in medium containing 2% FBS extracted with dextran-coated charcoal (DCC). 48 hours later, ethanol or 1 nM R1881 was added to the cells followed by peptide treatment. The MTT assay (Sigma) was used as before to determine cell number. For apoptosis, 5000 cells were seeded in 96-well plates and treated with Vehicle (DMSO), Peptide A-8R (25 µM), Etoposide (50 µM) (Sigma) at different time points. The Caspase (3/7) activity was measured using Apo-ONE Homogeneous Caspase-3/7 assay kit (Promega). PARP cleavage was also used to measure apoptosis, and is described below.
as §1
Figure 5 Peptide A-8R induces apoptosis of prostate cancer cells. (A) LNCaP, (B) PC-3, or (C) Cos cells were treated with Vehicle, Peptide A-8R (10 µM), or Etoposide (20 µM) for 0–24 hrs and subjected to a Caspase assay to measure apoptosis. […] (D) LNCaP cells were treated with Vehicle, Peptide C-8R, Peptide A-8R, or Etoposide (each drug at 50 µM) for 8 hrs and monitored for apoptosis by measuring PARP cleavage using Western blotting. […]

Ac-TFCKAFPFHIIRRRRRRRR [Peptide A-8R]
effect on sGCα1-sGCβ1 co-IP (heterodimerization) (sGCα1-sGCβ1): had no effect on either sGCα1 co-IP with sGCβ1 or sGCβ1 co-IP with sGCα1; also recorded: does not interfere with sGCα1-sGCβ1 dimerization
ROS induction ([1]; 0–30 min, fluorescence 490/535 nm, S5B, averages of three independent experiments): significant ROS induction in LNCaP cells within 30 minutes
ROS generation at 50 µM ([1]; 50 µM): decreased with 50 µM; also recorded: minimal ROS induction; also recorded: lowest induction of ROS
ROS generation, concentration dependence ([1]; 10 to 25 µM): rose when Peptide A-8R concentration was increased from 10 to 25 µM
effect on phosphorylated AKT level (AKT; Ser-473): similarly affected
effect on total AKT protein level (AKT; time course, 50 min): strong, time-dependent negative effect on the AKT protein, such that by 50 min most of the measurable AKT is gone; also recorded: significantly reduces AKT protein levels
induction of PARP cleavage [2]: to the same extent as by Etoposide
